Assay results taken from patent US5602168A, “1-(N'-(arylalkylaminoalkyl)) aminoisoindoles; dopamine receptor subtype specific ligands” (Neurogen Corporation, priority 1995, dated 1997).
Like-named read-outs stand apart in the source and are kept apart here.

Tests used:
[1] = target: D2 receptor (Chlorocebus aethiops, UniProt P52702); test: D2 receptor binding activity ([3H]-YM 09151-2 displacement); set-up: species or system African Green monkey; details: COS cell pellets with recombinant D2; 0.5 nM 3H-YM 09151-2; nonspecific 1 mM spiperone
Chain of D2 receptor (P52702 whole entry): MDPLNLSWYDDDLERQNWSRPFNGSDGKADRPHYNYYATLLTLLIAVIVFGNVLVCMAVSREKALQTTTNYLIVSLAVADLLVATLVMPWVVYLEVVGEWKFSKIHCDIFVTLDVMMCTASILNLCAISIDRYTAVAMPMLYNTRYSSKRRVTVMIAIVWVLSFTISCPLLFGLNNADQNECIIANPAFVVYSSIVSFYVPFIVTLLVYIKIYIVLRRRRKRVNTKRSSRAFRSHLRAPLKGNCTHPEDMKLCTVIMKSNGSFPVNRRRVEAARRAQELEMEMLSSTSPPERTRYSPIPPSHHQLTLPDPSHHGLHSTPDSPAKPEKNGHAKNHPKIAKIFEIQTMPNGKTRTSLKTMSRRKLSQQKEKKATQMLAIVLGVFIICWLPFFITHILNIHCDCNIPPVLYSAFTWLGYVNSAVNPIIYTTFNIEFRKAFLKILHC
Protocol: (§1) Pellets of COS cells containing recombinantly produced D2 or D3 receptors from African Green monkey were used for the assays. The sample is homogenized in 100 volumes (w/vol) of 0.05M Tris HCl buffer at 4° C. and pH 7.4. The sample is then centrifuged at 30,000×g and resuspended and rehomogenized. The sample is then centrifuged as described and the final tissue sample is frozen until use. The tissue is resuspended 1:20 (wt/vol) in 0.05M Tris HCl buffer containing 100 mM NaCl.
(§2) Incubations are carried out at […] and contain 0.4 ml of tissue sample, 0.5 nM ^3 H-YM 09151-2 and the compound of interest in a total incubation of 1.0 ml. Nonspecific binding is defined as that binding found in the presence of 1 mM spiperone; without further additions, nonspecific binding is less than 20% of total binding. The binding characteristics of examples of this patent for the D2 and D3 receptor subtypes are shown in Table 2 for Rat Striatal Homogenates.

[2] = target: T1, D3 receptor (Chlorocebus aethiops, UniProt P52703); test: D3 receptor binding activity ([3H]-YM 09151-2 displacement); set-up: species or system African Green monkey; details: COS cell pellets with recombinant D3; 0.5 nM 3H-YM 09151-2; nonspecific 1 mM spiperone
T1 construct: expressed in transfected cells; host or cells: COS cells (membrane homogenate)
T1 sequence (P52703 whole entry): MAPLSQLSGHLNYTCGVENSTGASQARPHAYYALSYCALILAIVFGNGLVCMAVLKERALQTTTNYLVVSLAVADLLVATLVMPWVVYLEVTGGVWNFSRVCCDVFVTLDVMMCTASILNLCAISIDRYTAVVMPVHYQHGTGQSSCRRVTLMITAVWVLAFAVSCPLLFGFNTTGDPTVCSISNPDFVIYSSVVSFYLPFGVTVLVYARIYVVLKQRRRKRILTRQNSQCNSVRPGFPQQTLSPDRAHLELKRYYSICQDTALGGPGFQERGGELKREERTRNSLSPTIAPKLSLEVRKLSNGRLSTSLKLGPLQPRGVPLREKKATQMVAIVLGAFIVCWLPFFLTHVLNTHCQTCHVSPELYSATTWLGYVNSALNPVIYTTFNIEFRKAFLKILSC
Protocol: as §1, §2

[3] = target: T2, human dopamine D4 receptor (Homo sapiens, UniProt P21917); test: D4 receptor binding activity ([3H]YM-09151-2 displacement); details: human D4 clonal cell lines; 0.1 nM [3H]YM-09151-2; 60 minutes at 25° C.; pH 7.4
T2 construct: expressed in transfected cells
T2 sequence (P21917 1-419): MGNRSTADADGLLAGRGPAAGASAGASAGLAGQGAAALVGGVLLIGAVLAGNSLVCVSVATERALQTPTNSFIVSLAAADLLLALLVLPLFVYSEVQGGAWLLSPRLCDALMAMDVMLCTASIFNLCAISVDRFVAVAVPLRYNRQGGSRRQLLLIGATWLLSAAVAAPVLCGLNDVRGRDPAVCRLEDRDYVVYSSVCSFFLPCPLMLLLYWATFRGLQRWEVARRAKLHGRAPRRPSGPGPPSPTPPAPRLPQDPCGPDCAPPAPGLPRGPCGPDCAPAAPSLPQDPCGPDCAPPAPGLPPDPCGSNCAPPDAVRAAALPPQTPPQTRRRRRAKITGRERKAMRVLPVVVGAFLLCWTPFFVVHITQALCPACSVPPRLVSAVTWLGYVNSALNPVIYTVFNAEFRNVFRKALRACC
Protocol: Clonal cell lines expressing the human dopamine D4 receptor subtype were harvested in PBS and the cells centrifuged and the pellets stored at -80° C. until used in the binding assay. The pellets were resuspended and the cells lysed at 4° C. in 50 mM Tris pH 7.4 buffer containing 120 mM NaCl, 1 mM EDTA and 5 mM MgCl2. The homogenate is centrifuged at 48000×g for 10 minutes at 4° C. The resulting pellet is resuspended in fresh buffer and centrifuged again. After resuspension of the pellet in fresh buffer a […] aliquot is removed for protein determination. The remaining homogenate is centrifuged as above, the supernatant removed and the pellet stored at 4° C. until needed at which time it is resuspended to a final concentration of […] with 50 mM Tris buffer (pH 7.4) and 120 mM NaCl just prior to use. Incubations were carried out for 60 minutes at 25° C. in the presence of 0.1 nM [^3 H]YM-09151-2. The incubation was terminated by rapid filtration through Whatman GF/C filters and rinsed with 2×4 ml washes of chilled 50 mM Tris (pH 7.4) and 120 mM NaCl. Non-specific binding was determined with 1 mM spiperone and radioactivity determined by counting in an LKB beta counter. Binding parameters were determined by non-linear least squares regression analysis, from which the inhibition constant Ki could be calculated for each test compound. The binding characteristics of some examples of this invention are shown in Table 3 for the dopamine D4 binding assay.

[4] = cited from earlier work
[5] = tested on: D1 dopamine receptor; details: background statement; cited from earlier work
[6] = tested on: D2 receptors; details: background statement; cited from earlier work

For `c1cnc(N2CCN(CCNC3=NCc4ccccc43)CC2)nc1` [Compound 1], the Ki [1] was 2380 nM, the Ki [2] was over 100000 nM and the Ki [3] was 12 nM.

`c1cnc(N2CCN(CCCNC3=NCc4ccccc43)CC2)nc1` [Compound 2] showed a Ki [1] of 1420 nM, a Ki [2] of over 100000 nM and a Ki [3] of 70 nM.

In the case of `CN(CCCc1ccccc1)CCNC1=NCc2ccccc21` [Compound 3, 1-(N-[2-{N'-(3-phenylpropyl)-N'-methyl}aminoethyl])aminoisoindole dioxolate], the Ki [1] is reported as 1940 nM, the Ki [2] is reported as over 100000 nM and the Ki [3] is reported as 100 nM.

For `CN1CCN(C2=Nc3cc(Cl)ccc3Nc3ccccc32)CC1` [clozapine], the “incidence of extrapyramidal side effects (EPS)” value ([4]; versus classical neuroleptics, background statement) is given as “lesser incidence of extrapyramidal side effects (EPS) than classical neuroleptics”.

In the case of `O=C(CCCN1CCC(O)(c2ccc(Cl)cc2)CC1)c1ccc(F)cc1` [haloperidol], the “binding at D1 dopamine receptor” value [5] is listed as “binds relatively weakly” and the “binding affinity at D2 receptors” value [6] is listed as “in the subnanomolar range”.

In the case of `CCN1CCCC1CNC(=O)c1cc(S(N)(=O)=O)ccc1OC` (stereo not shown) [sulpiride], the “incidence of extrapyramidal side effects (EPS)” value ([4]; in vivo) is given as “lesser incidence of extrapyramidal side effects (EPS) than classical neuroleptics”.
